# Conditions: buffer; pH 7.4; 200.0 µM
row,solubility kinetic [µg/mL],Structure (SMILES)
1,0.8,Cc1ccc(OCC(=O)Nc2cccnc2Cl)cc1C
2,32.6,CCOc1ccc(Cc2onc3c2C(=O)CC(C)(C)C3)cc1OCC
3,> 53.9,COCC(C)NC(=O)c1ccc2c(c1)S(=O)(=O)c1ccccc1C2=O (stereo not drawn)
4,46.7,Cc1ccc(OCC(=O)NCCNC(=O)c2cccnc2)cc1C
5,> 44,COC(=O)c1scc(C)c1NC(=O)c1ccccc1F
6,> 48.8,COc1ccc(C(=O)NC(=S)N2CCOCC2)cc1[N+](=O)[O-]
7,11.7,N#Cc1nc(COc2ccc(F)cc2)oc1N1CCCCC1
8,> 44.2,NC(=O)C1CCN(C(=O)CCC(=O)c2cccs2)CC1
9,4.6,O=C(COC(=O)/C=C/c1ccc(OC(F)F)cc1)NC1CCCCCC1
10,> 45.4,CC1CCc2sc3ncnc(N4CCN(C)CC4)c3c2C1 (stereo not drawn)
11,> 46.4,O=c1c([N+](=O)[O-])cccn1Cc1cccc(Br)c1
12,16.1,CC(C)[C@H](NC(=O)OCc1ccccc1)C(=O)OCC(=O)c1ccccc1
13,> 43.2,O=C(CSc1ncnc2ccccc12)N1CCNC1=O
14,> 41.3,Cc1ccc(CN2C(=O)C(=O)N(CC(N)=O)C2=O)cc1
15,> 50.2,CSc1ccc(CN2CCN(CC=C(C)C)C(CCO)C2)cc1 (stereo not drawn)
16,> 32.3,Nn1c(C2CCC2)nc2ccccc2c1=O
17,14.4,O=C(COC(=O)/C=C/c1ccccc1Cl)NCc1ccco1
18,45.5,O=C1CC(c2cccs2)Cc2nc(NC(=O)C3CC3)ncc21 (stereo not drawn)
19,12,COc1ccc(C)cc1NC(=O)C1CCCCN1S(=O)(=O)c1ccccc1 (stereo not drawn)
20,24.7,Cc1ccc(C)c(OCCn2ccnc2)c1
21,> 47.8,Cc1cc(C(=O)N2CCN(c3ccccc3Cl)CC2)c(C)o1
22,> 49.1,O=c1[nH]c(/C=C\c2cccc(C(F)(F)F)c2)nc(O)c1[N+](=O)[O-]
23,> 46.3,O=C(/C=C/c1ccc(Cl)cc1)NCCCN1CCOCC1
24,2.1,O=C(O/N=C(/c1ccccc1)c1ccncc1)c1cccc(F)c1

row,solubility kinetic [µg/mL],Structure (SMILES)
1,39.3,CCN(Cc1cc2ccccc2[nH]c1=O)C(=O)c1cccc([N+](=O)[O-])c1
2,> 37.4,CC(=O)N1NC(=Nc2ccccc2)SC1(C)C
3,29.7,COc1cccc(CNC(=O)C(Cc2ccccc2)n2cccc2)c1 (stereo not drawn)
4,46.2,Cc1ccc(CN2CC(C(=O)N(C)CC(=O)Nc3cccc(F)c3)CC2=O)cc1 (stereo not drawn)
5,> 46.6,Cc1cc(C)cc(N(CC(=O)N2CCCC2)S(C)(=O)=O)c1
6,49.3,O=C(CCc1nc(-c2ccccc2Cl)no1)Nc1cccnc1
7,2.4,CCCc1cc(C(=O)Nc2ccc(C#N)cc2)no1
8,8,Cc1ccc(-c2csc(N=C(N)N)n2)c(C)c1
9,> 32.1,O=[N+]([O-])c1ccc(Cc2ccccn2)cc1
10,23.9,COCc1cc(C)nc(OC)c1C(N)=O
11,2.1,Cc1c(Cl)cccc1NC(=O)C1CCN(c2cnccn2)CC1
12,> 30.6,CNC1(C)[C@H]2CC[C@H](C2)C1(C)C.Cl (stereo partly drawn)
13,< 0.3,CSc1cc(-c2ccncc2)nc(-c2ccc(Cl)cc2)c1
14,> 55.6,Cc1nnc(SCC(=O)Nc2ccc(S(N)(=O)=O)cc2)n(N)c1=O
15,> 50.2,S=C1NCN(Cc2cccnc2)CN1c1cccc2ccccc12
16,40.5,O=C1c2ccsc2SCCN1Cc1ccc(F)cc1
17,10,COc1ccccc1NC(=O)NC1(C(=O)N2CCCCC2)CCCCC1
18,42.8,CC(C)(CNC(=O)c1ccc(Br)o1)N1CCOCC1
19,> 47.6,O=C1c2ccccc2CN1CCNC(=S)NC1CCCCC1
20,12.2,Cc1nc(N2CCOCC2)nc(N2CCCCC2C)c1[N+](=O)[O-] (stereo not drawn)
21,1.8,COC(=O)c1sc(N(C)C)c(C#N)c1-c1ccccc1
22,> 43.4,Nc1ccc(S(=O)(=O)Nc2nc3ccccc3o2)cc1
23,28.8,Cc1[nH]c2c(C)cccc2c1CN1CCC(CO)(Cc2ccccc2)CC1
24,> 40.7,COc1cc2ccccc2cc1C(=O)N1CCOCC1

# — PubChem BioAssay AID1996
